This is an account of results in patent publication US8748415B2 (priority 2011, dated 2014).

Each structure is given as a SMILES string. Bounds are passed on as bounds.

This test has as its system recombinant NL4-3 virus (Renilla luciferase in nef, Gag P373S). Kind of test: HIV cell culture assay (luciferase activity in MT-2 cells infected with NLRluc recombinant virus). Particulars: NL43, MT-2 cells infected 4-5 days with NLRluc recombinant virus. Format: cell-based. The procedure, abridged: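 MT-2 cells in RPMI/10% FBS were infected with recombinant NL4-3 (NLRluc), produced by 293T transfection and titered in MT-2 by luciferase. Serial inhibitor dilutions were present throughout a 4–5 day infection. Antiviral activity was quantified as Renilla luciferase signal via a modified Dual Luciferase read.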

For orientation: EC50 means the concentration that produces a half-maximal response. As for `C=C(C)[C@@H]1CC[C@]2(CNCCN(C)CCO)CC[C@]3(C)[C@H](CC[C@@H]4[C@@]5(C)CC=C(c6ccc(C(=O)O)cc6)C(C)(C)[C@@H]5CC[C@]43C)[C@@H]12` [Example 26, 4-((1R,3aS,5aR,5bR,7aR,11aS,11bR,13aR,13bR)-3a-((2-((2-hydroxyethyl)(methyl)amino)ethylamino)methyl)-5a,5b,8,8,11a-pentamethyl-1-(prop-1-en-2-yl)-2,3,3a,4,5,5a,5b,6,7,7a,8,11,11a,11b,12,13,13a,13b-octadecahydro-1H-cyclopenta[a]chrysen-9-yl)benzoic acid], the EC50 (class symbol) was less than 0.1 µM.

In the case of `C=C(C)[C@@H]1CC[C@]2(CNCCC(=O)N3CCN(S(=O)(=O)N(C)C)CC3)CC[C@]3(C)[C@H](CC[C@@H]4[C@@]5(C)CC=C(c6ccc(C(=O)O)cc6)C(C)(C)[C@@H]5CC[C@]43C)[C@@H]12` [Example 97, 4-((1R,3aS,5aR,5bR,7aR,11aS,11bR,13aR,13bR)-3a-((3-(4-(N,N-dimethylsulfamoyl)piperazin-1-yl)-3-oxopropylamino)methyl)-5a,5b,8,8,11a-pentamethyl-1-(prop-1-en-2-yl)-2,3,3a,4,5,5a,5b,6,7,7a,8,11,11a,11b,12,13,13a,13b-octadecahydro-1H-cyclopenta[a]chrysen-9-yl)benzoic acid], the EC50 (class symbol) was less than 0.1 µM.

In the case of `C=C(C)[C@@H]1CC[C@]2(CN(C)C)CC[C@]3(C)[C@H](CC[C@@H]4[C@@]5(C)CC=C(c6ccc(C(=O)O)cc6)C(C)(C)[C@@H]5CC[C@]43C)[C@@H]12` [Example 83, 4-((1R,3aS,5aR,5bR,7aR,11aS,11bR,13aR,13bR)-3a-((dimethylamino)methyl)-5a,5b,8,8,11a-pentamethyl-1-(prop-1-en-2-yl)-2,3,3a,4,5,5a,5b,6,7,7a,8,11,11a,11b,12,13,13a,13b-octadecahydro-1H-cyclopenta[a]chrysen-9-yl)benzoic acid], the EC50 (class symbol) is less than 0.1 µM.

On to `C=C(C)[C@@H]1CC[C@]2(CNC(=O)NCC(=O)O)CC[C@]3(C)[C@H](CC[C@@H]4[C@@]5(C)CC=C(c6ccc(C(=O)O)cc6)C(C)(C)[C@@H]5CC[C@]43C)[C@@H]12` [Example 157, 4-((1R,3aS,5aR,5bR,7aR,11aS,11bR,13aR,13bR)-3a-((3-(carboxymethyl)ureido)methyl)-5a,5b,8,8,11a-pentamethyl-1-(prop-1-en-2-yl)-2,3,3a,4,5,5a,5b,6,7,7a,8,11,11a,11b,12,13,13a,13b-octadecahydro-1H-cyclopenta[a]chrysen-9-yl)benzoic acid], for which, under “numeric value”, the EC50 is 0.04 µM.

As to `C=C(C)[C@@H]1CC[C@]2(CNCC(=O)N3CCCCC3)CC[C@]3(C)[C@H](CC[C@@H]4[C@@]5(C)CC=C(c6ccc(C(=O)O)cc6)C(C)(C)[C@@H]5CC[C@]43C)[C@@H]12` [Example 110, 4-((1R,3aS,5aR,5bR,7aR,11aS,11bR,13aR,13bR)-5a,5b,8,8,11a-pentamethyl-3a-((2-oxo-2-(piperidin-1-yl)ethylamino)methyl)-1-(prop-1-en-2-yl)-2,3,3a,4,5,5a,5b,6,7,7a,8,11,11a,11b,12,13,13a,13b-octadecahydro-1H-cyclopenta[a]chrysen-9-yl)benzoic acid], where the note is “class symbol”, the EC50 was less than 0.1 µM.

For `C=C(C)[C@@H]1CC[C@]2(CNC3(CN(CC)CC)CC3)CC[C@]3(C)[C@H](CC[C@@H]4[C@@]5(C)CC=C(c6ccc(C(=O)O)cc6)C(C)(C)[C@@H]5CC[C@]43C)[C@@H]12` [Example 52, 4-((1R,3aS,5aR,5bR,7aR,11aS,11bR,13aR,13bR)-3a-((1-((diethylamino)methyl)cyclopropylamino)methyl)-5a,5b,8,8,11a-pentamethyl-1-(prop-1-en-2-yl)-2,3,3a,4,5,5a,5b,6,7,7a,8,11,11a,11b,12,13,13a,13b-octadecahydro-1H-cyclopenta[a]chrysen-9-yl)benzoic acid], for the setting “class symbol”, the EC50 was less than 0.1 µM.

Take `C=C(C)[C@@H]1CC[C@]2(CNCCN(CC)CC)CC[C@]3(C)[C@H](CC[C@@H]4[C@@]5(C)CC=C(c6ccc(C(=O)O)cc6)C(C)(C)[C@@H]5CC[C@]43C)[C@@H]12` [Example 21, 4-((1R,3aS,5aR,5bR,7aR,11aS,11bR,13aR,13bR)-3a-((2-(diethylamino)ethylamino)methyl)-5a,5b,8,8,11a-pentamethyl-1-(prop-1-en-2-yl)-2,3,3a,4,5,5a,5b,6,7,7a,8,11,11a,11b,12,13,13a,13b-octadecahydro-1H-cyclopenta[a]chrysen-9-yl)benzoic acid]: the EC50 (class symbol) is less than 0.1 µM.

For `C=C(C)[C@@H]1CC[C@]2(CNCCCN(C)c3ccccc3)CC[C@]3(C)[C@H](CC[C@@H]4[C@@]5(C)CC=C(c6ccc(C(=O)O)cc6)C(C)(C)[C@@H]5CC[C@]43C)[C@@H]12` [Example 18, 4-((1R,3aS,5aR,5bR,7aR,11aS,11bR,13aR,13bR)-5a,5b,8,8,11a-pentamethyl-3a-((3-(methyl(phenyl)amino)propylamino)methyl)-1-(prop-1-en-2-yl)-2,3,3a,4,5,5a,5b,6,7,7a,8,11,11a,11b,12,13,13a,13b-octadecahydro-1H-cyclopenta[a]chrysen-9-yl)benzoic acid], where the note is “class symbol”, the EC50 is less than 0.1 µM.

Consider `C=C(C)[C@@H]1CC[C@]2(CNCC(=O)N3CCC(C(=O)OCC)CC3)CC[C@]3(C)[C@H](CC[C@@H]4[C@@]5(C)CC=C(c6ccc(C(=O)O)cc6)C(C)(C)[C@@H]5CC[C@]43C)[C@@H]12` [Example 111, 4-((1R,3aS,5aR,5bR,7aR,11aS,11bR,13aR,13bR)-3a-((2-(4-(ethoxycarbonyl)piperidin-1-yl)-2-oxoethylamino)methyl)-5a,5b,8,8,11a-pentamethyl-1-(prop-1-en-2-yl)-2,3,3a,4,5,5a,5b,6,7,7a,8,11,11a,11b,12,13,13a,13b-octadecahydro-1H-cyclopenta[a]chrysen-9-yl)benzoic acid], for which, for the setting “class symbol”, the EC50 was less than 0.1 µM.

Turning to `C=C(C)[C@@H]1CC[C@]2(CNC(=O)CN3CCCC3=O)CC[C@]3(C)[C@H](CC[C@@H]4[C@@]5(C)CC=C(c6ccc(C(=O)O)cc6)C(C)(C)[C@@H]5CC[C@]43C)[C@@H]12` [Example 133, 4-((1R,3aS,5aR,5bR,7aR,11aS,11bR,13aR,13bR)-5a, 5b,8,8,11a-pentamethyl-3a-((2-(2-oxopyrrolidin-1-yl)acetamido)methyl)-1-(prop-1-en-2-yl)-2,3,3a,4,5,5a,5b,6,7,7a,8,11,11a,11b,12,13,13a,13b-octadecahydro-1H-cyclopenta[a]chrysen-9-yl)benzoic acid], the EC50 (class symbol) was less than 0.1 µM.

Regarding `C=C(C)[C@@H]1CC[C@]2(CNC(=O)CCC(=O)O)CC[C@]3(C)[C@H](CC[C@@H]4[C@@]5(C)CC=C(c6ccc(C(=O)O)cc6)C(C)(C)[C@@H]5CC[C@]43C)[C@@H]12` [Example 169, 4-((1R,3aS,5aR,5bR,7aR,11aS,11bR,13aR,13bR)-3a-((3-carboxypropanamido)methyl)-5a,5b,8,8,11a-pentamethyl-1-(prop-1-en-2-yl)-2,3,3a,4,5,5a,5b,6,7,7a,8,11,11a,11b,12,13,13a,13b-octadecahydro-1H-cyclopenta[a]chrysen-9-yl)benzoic acid], the EC50 (class symbol) was less than 0.1 µM.
